molecular target: EBI2 (Homo sapiens, UniProt P32249); test: Cell-based luminescent assay (EBI2 modulation); details: not given
Summary of the method: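 Cells plated overnight at 37° C, then exposed to compound at 4-5 uM final with 80 nM 7a,25-OHC agonist for 60 min at 37° C. Luminescence read after 60 min detection at 25° C in the dark; values normalized to neutral and stimulator controls and plate-pattern corrected.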

EBI2, sequence (P32249 whole entry): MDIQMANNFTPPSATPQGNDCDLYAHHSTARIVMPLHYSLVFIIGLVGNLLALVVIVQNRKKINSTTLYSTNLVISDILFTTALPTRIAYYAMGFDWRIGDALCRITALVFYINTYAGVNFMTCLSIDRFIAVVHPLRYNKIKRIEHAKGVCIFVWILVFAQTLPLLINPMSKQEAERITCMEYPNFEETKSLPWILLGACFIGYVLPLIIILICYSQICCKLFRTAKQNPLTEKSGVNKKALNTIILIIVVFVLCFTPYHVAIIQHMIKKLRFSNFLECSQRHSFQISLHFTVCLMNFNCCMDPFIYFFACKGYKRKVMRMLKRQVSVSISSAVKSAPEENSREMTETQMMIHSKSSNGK

`O=C(/C=C/c1ccccc1)N1CCN(Cc2cccc(F)c2)CC1` [Compound C240, (2E)-1-{4-[(3-fluorophenyl)methyl]piperazinyl}-3-phenylprop-2-en-1-one] and `O=C(c1cc2cc(Cl)ccc2[nH]1)N1CCC(Nc2cccc(F)c2)CC1` [Compound C252, 5-chloroindol-2-yl 4-[(3-fluorophenyl)amino]piperidyl ketone] cannot be ordered by IC50: < 100 nM for the first, < 100 nM for the second.

same assay, conditions: cell-based luminescence; 7a,25-OHC final assay concentration 80 nM; 60 minutes incubation; read-out: IC50

First: benzo[d]furan-2-yl 4-(phenylethyl)piperazinyl ketone [Compound C405]
Second: (2E)-1-[4-(2-(1,3-dihydroisobenzofuran-5-yl)ethyl)piperazinyl]-3-phenylprop-2-en-1-one [Compound C362]
The IC50 of the first is higher: 100 to 500 nM for the first, < 100 nM for the second. The second is the more potent here.

First: 1-{4-[(4-methoxyphenyl)methyl]piperazinyl}-3-[4-(trifluoromethyl)phenyl]prop-2-yn-1-one [Compound C352]
Second: O=C(c1ccc(Br)cc1)N1CCN(Cc2ccc(F)cc2C(F)(F)F)CC1 [Compound C164, 4-bromophenyl 4-{[4-fluoro-2-(trifluoromethyl)phenyl]methyl}piperazinyl ketone]
The IC50 of the first is lower: < 100 nM for the first, 500 to 5000 nM for the second.

`O=C(/C=C/c1ccc(Br)cc1)N1CCN(C(=O)c2ccc(C(F)(F)F)cc2)CC1` [Compound C44, (2E)-3-(4-bromophenyl)-1-(4-{[4-(trifluoromethyl)phenyl]carbonyl}piperazinyl)prop-2-en-1-one] and `O=C(C#Cc1ccc(Br)cc1)N1CCN(Cc2ccc(F)cc2)CC1` [Compound C401, 3-(4-bromophenyl)-1-{4-[(4-fluorophenyl)methyl]piperazinyl}prop-2-yn-1-one] cannot be ordered by IC50: < 100 nM for the first, < 100 nM for the second.

First: O=C(C#Cc1ccc(C(F)(F)F)cc1)N1CCN(C(=O)c2ccc(F)cc2)CC1 [Compound C76, 1-{4-[(4-fluorophenyl)carbonyl]piperazinyl}-3-[4-(trifluoromethyl)phenyl]prop-2-yn-1-one]
Second: O=C(Nc1ccc(Cl)cc1)N1CCN(C(=O)c2cc3cc(Cl)ccc3[nH]2)CC1 [Compound C429, {4-[(5-chloroindol-2-yl)carbonyl]piperazinyl}-N-(4-chlorophenyl)carboxamide]
The IC50 of the first is lower: < 100 nM for the first, 100 to 500 nM for the second. The first is the more potent here.

`O=C(C#Cc1ccc(C(F)(F)F)cc1)N1CCN(Cc2ccc(F)cc2)CC1` [Compound C231, 1-{4-[(4-fluorophenyl)methyl]piperazinyl}-3-[4-(trifluoromethyl)phenyl]prop-2-yn-1-one] and `O=C(C#Cc1ccc(C(F)(F)F)cc1)N1CCN(Cc2ccc(Cl)cc2)CC1` [Compound C137, 1-{4-[(4-chlorophenyl)methyl]piperazinyl}-3-[4-(trifluoromethyl)phenyl]prop-2-yn-1-one] cannot be ordered by IC50: < 100 nM for the first, < 100 nM for the second.

`O=C(/C=C/c1ccc(F)cc1)N1CCN(S(=O)(=O)c2ccc(F)cc2)CC1` [Compound C235, (2E)-3-(4-fluorophenyl)-1-{4-[(4-fluorophenyl)sulfonyl]piperazinyl}prop-2-en-1-one] and `O=C(/C=C/c1ccc(F)cc1)N1CCN(S(=O)(=O)/C=C/c2ccccc2)CC1` [Compound C95] cannot be ordered by IC50: < 100 nM for the first, < 100 nM for the second.

`Cc1cc(CN2CCN(C(=O)/C=C/c3ccc(Br)cc3)CC2)ccc1F` [Compound C32, (2E)-3-(4-bromophenyl)-1-{4-[(4-fluoro-3-methylphenyl)methyl]piperazinyl}prop-2-en-1-one] and “3-(3,4-dichlorophenyl)-1-{4-[(4-chlorophenyl)carbonyl]piperazinyl}prop-2-yn-1-one [Compound C51]” cannot be ordered by IC50: < 100 nM for the first, < 100 nM for the second.

Compared with `O=C(C#Cc1cccc(Cl)c1Cl)N1CCN(Cc2ccc(C(F)(F)F)cc2)CC1` [Compound C281, 3-(2,3-dichlorophenyl)-1-(4-{[4-(trifluoromethyl)phenyl]methyl}piperazinyl)prop-2-yn-1-one], “6-bromoindol-2-yl 4-[(4-chlorophenyl)carbonyl]piperazinyl ketone [Compound C239]” is lower in IC50: 100 to 500 nM for the first, < 100 nM for the second. The second is the more potent here.

First: O=C(/C=C/c1ccccc1)N1CCN(C(=O)/C=C/c2ccccc2)CC1 [Compound C99, (2E)-1-[4-((2E)-3-phenylprop-2-enoyl)piperazinyl]-3-phenylprop-2-en-1-one]
Second: 4-(diphenylmethyl)piperazinyl 1-methylindol-5-yl ketone [Compound C433]
The IC50 of the first is lower: < 100 nM for the first, 100 to 500 nM for the second.

`O=C(/C=C/c1ccc(C(F)(F)F)cc1)N1CCN(C(c2ccccc2)c2ccccc2)CC1` [Compound C29, (2E)-1-[4-(diphenylmethyl)piperazinyl]-3-[4-(trifluoromethyl)phenyl]prop-2-en-1-one] and “(2E)-3-(4-ethoxyphenyl)-1-[4-(phenylsulfonyl)piperazinyl]prop-2-en-1-one [Compound C313]” cannot be ordered by IC50: < 100 nM for the first, < 100 nM for the second.

`CC(C)CN1CCN(C(=O)/C=C/c2ccc(Br)cc2)CC1` [Compound C52, (2E)-3-(4-bromophenyl)-1-[4-(methylpropyl)piperazinyl]prop-2-en-1-one] and “(2E)-3-(4-bromophenyl)-1-[4-({[(4-chlorophenyl)methyl]amino}methyl)piperidyl]prop-2-en-1-one [Compound C74]” cannot be ordered by IC50: < 100 nM for the first, < 100 nM for the second.

First: O=C(C#Cc1ccc(F)cc1)N1CCN(C(c2ccccc2)c2ccccc2)CC1 [Compound C159, 1-[4-(diphenylmethyl)piperazinyl]-3-(4-fluorophenyl)prop-2-yn-1-one]
Second: O=C(c1ccc(Br)cc1)N1CCN(Cc2ccc(F)cc2)CC1 [Compound C165, 4-bromophenyl 4-[(4-fluorophenyl)methyl]piperazinyl ketone]
The IC50 of the first is lower: < 100 nM for the first, 500 to 5000 nM for the second. The first is the more potent here.

First: O=C(C#Cc1ccc(Br)cc1)N1CCN(C(=O)c2ccc(B(O)O)cc2)CC1 [Compound C160, 4-(4-(3-(4-bromophenyl)propioloyl)piperazine-1-carbonyl)phenylboronic acid]
Second: 1-(4-{[4-fluoro-2-(trifluoromethyl)phenyl]methyl}piperazinyl)-3-(4-methylphenyl)prop-2-yn-1-one [Compound C459]
The IC50 of the first is lower: < 100 nM for the first, 100 to 500 nM for the second.

Compared with `O=C(c1cc2cccc([N+](=O)[O-])c2[nH]1)N1CCN(C(c2ccccc2)c2ccccc2)CC1` [Compound C178, 4-(diphenylmethyl)piperazinyl 7-nitroindol-2-yl ketone], `CCCc1ccc(S(=O)(=O)N2CCN(C(=O)/C=C/c3ccc(F)cc3)CC2)cc1` [Compound C259, (2E)-3-(4-fluorophenyl)-1-{4-[(4-propylphenyl)sulfonyl]piperazinyl}prop-2-en-1-one] is lower in IC50: 500 to 5000 nM for the first, < 100 nM for the second.

`O=C(c1ccc(C(F)(F)F)c(F)c1)N1CCN(C(=O)c2cc3cc(C(F)(F)F)ccc3[nH]2)CC1` [Compound C200, 4-{[3-fluoro-4-(trifluoromethyl)phenyl]carbonyl}piperazinyl 5-(trifluoromethyl)indol-2-yl ketone] and `O=C(/C=C/c1cccc(C(F)(F)F)c1)N1CCN(C(c2ccccc2)c2ccccc2)CC1` [Compound C265, (2E)-1-[4-(diphenylmethyl)piperazinyl]-3-[3-(trifluoromethyl)phenyl]prop-2-en-1-one] cannot be ordered by IC50: < 100 nM for the first, < 100 nM for the second.

`O=C(/C=C/c1ccc(Br)cc1)N1CCN(C(=O)c2ccc(B(O)O)cc2)CC1` [Compound C153, (E)-(4-(4-(3-(4-bromophenyl)acryloyl)piperazine-1-carbonyl)phenyl)boronic acid] and “1-{4-[(4-methoxyphenyl)carbonyl]piperazinyl}-3-[2-(trifluoromethyl)phenyl]prop-2-yn-1-one [Compound C373]” cannot be ordered by IC50: < 100 nM for the first, < 100 nM for the second.

`Cc1ccc(C#CC(=O)N2CCN(C(c3ccccc3)c3ccccc3)CC2)cc1` [Compound C58, 1-[4-(diphenylmethyl)piperazinyl]-3-(4-methylphenyl)prop-2-yn-1-one] and `CCCCN1CCN(C(=O)/C=C/c2ccc(Br)cc2)CC1` [Compound C49, (2E)-3-(4-bromophenyl)-1-(4-butylpiperazinyl)prop-2-en-1-one] cannot be ordered by IC50: < 100 nM for the first, < 100 nM for the second.

“4-[(4-bromophenyl)sulfonyl]piperazinyl 5-chloroindol-2-yl ketone [Compound C333]” and `O=C(c1cccc(Cl)c1)N1CCN(C(=O)c2cc3cc(C(F)(F)F)ccc3[nH]2)CC1` [Compound C127, 4-[(3-chlorophenyl)carbonyl]piperazinyl 5-(trifluoromethyl)indol-2-yl ketone] cannot be ordered by IC50: < 100 nM for the first, < 100 nM for the second.

`O=C(C#Cc1ccc(C(F)(F)F)cc1)N1CCN(C(c2ccccc2)c2ccccc2)CC1` [Compound C66, 1-[4-(diphenylmethyl)piperazinyl]-3-[4-(trifluoromethyl)phenyl]prop-2-yn-1-one] and `O=C(C#Cc1cccc(Cl)c1)N1CCN(Cc2ccc(Cl)cc2)CC1` [Compound C316, 3-(3-chlorophenyl)-1-{4-[(4-chlorophenyl)methyl]piperazinyl}prop-2-yn-1-one] cannot be ordered by IC50: < 100 nM for the first, < 100 nM for the second.

First: O=C(/C=C/c1ccc(F)c(F)c1)N1CCN(C(c2ccccc2)c2ccccc2)CC1 [Compound C106, (2E)-3-(3,4-difluorophenyl)-1-[4-(diphenylmethyl)piperazinyl]prop-2-en-1-one]
Second: O=C(C#Cc1ccccc1C(F)(F)F)N1CCN(Cc2ccc(Cl)cc2)CC1 [Compound C469, 1-{4-[(4-chlorophenyl)methyl]piperazinyl}-3-[2-(trifluoromethyl)phenyl]prop-2-yn-1-one]
The IC50 of the first is lower: < 100 nM for the first, 100 to 500 nM for the second. The first is the more potent here.

`O=C(c1cc2ccccc2s1)N1CCN(C(c2ccccc2)c2ccccc2)CC1` [Compound C123, benzo[b]thiophen-2-yl 4-(diphenylmethyl)piperazinyl ketone] and `O=C(/C=C/c1ccc(Br)cc1)N1CCN(C(=O)c2ccc(-c3nnn[nH]3)cc2)CC1` [Compound C152, (2E)-3-(4-bromophenyl)-1-{4-[(4-(1H-1,2,3,4-tetraazol-5-yl)phenyl)carbonyl]piperazinyl}prop-2-en-1-one] cannot be ordered by IC50: < 100 nM for the first, < 100 nM for the second.

`O=C(c1cc2cc(Cl)ccc2[nH]1)N1CCN(c2ccc(F)cc2F)CC1` [Compound C434, 4-(2,4-difluorophenyl)piperazinyl 5-chloroindol-2-yl ketone] gave an IC50 of 100 to 500 nM.

From patent publication US9776979B2, “EBI2 modulators” (Sanford-Burnham Medical Research Institute, priority 2013, dated 2017)
